The results in this text go back to patent publication EP4644391A1, “NOVEL PHENYLQUINOLONE COMPOUND HAVING ANTIBACTERIAL AND ANTICANCER FUNCTIONS, AND PREPARATION THEREOF” (Alphamol Science Ltd (Shanghai), priority 2022, dated 2024).

Format in all cases: cell-based
Experiment [1] has as its system Staphylococcus aureus ATCC43300. Kind of experiment: Resistance test of bacteria against compounds (serial passage, 21 days). Conditions: Staphylococcus aureus, ATCC43300, 504 h, read-out: MIC at the end of the experiment. The protocol: This example provides a resistance test of bacteria against compounds, and the specific experimental method is as follows. • 1. […] It was ensured that among the 6 final concentrations of the drug diluted into the wells, some were higher than the original MIC of the bacteria and some were lower than the original MIC of the bacteria. • 2. Preparation of bacterial liquid: 10 mL of culture medium was taken and added to a sterilized plate using a pipette, then 100 µL of the above-mentioned passaged bacterial liquid was added, and mixed well for later use. • 3. The above-mentioned diluted bacterial liquid was taken and added to a 96-well plate using a pipette, 180 µL per well, 3 wells per group, 6 groups in total. 20 µL of drug solution was added to each well (note: it is necessary to replace the pipette tip each time the drug is added), so that the final drug concentrations were 2 µg/mL, 1 µg/mL, 0.8 µg/mL, 0.4 µg/mL, 0.2 µg/mL, 0.1 µg/mL, respectively. The well with 200 µL of diluted bacterial liquid was used as the positive control well, and the well with 200 µL of culture medium was used as the negative control well.
The test object was Staphylococcus aureus (S. aureus). The specific results are shown in FIG1.

A further experiment deals with S. aureus ATCC 43300. The experiment can be described thus: In vitro antibacterial activity assay (MIC, broth dilution). The settings on record: Staphylococcus aureus, ATCC43300; Table 1; 37°C, 16 hours; read-out: G+ bacteria MIC S. aureus ATCC 43300. The text has this:
(§1) The method used to indicate the activity of the compounds in this example is to record the minimum inhibitory concentration (MIC) of the compounds against bacteria. The specific experimental method is as follows: • 1. The bacterial liquid cultured from a single colony was taken, and diluted into autoclaved CAMHB broth in a ratio of 1:1000, and mixed well. • 2. The prepared drug solution was filtered through a sterile 0.22µm syringe filter and placed in a sterile EP tube for later use. • 3. A 96-well plate was taken, and 20µL of drug solution (400µg/mL) was added to each well in the first column of the 96-well plate. Then, 180µL of diluted bacterial liquid was added and mixed well (Perform 3 replicate rows for each drug). The same process was performed for the hydrochloride drug. • 4. 100 µL of diluted bacterial liquid was added to each well in the remaining 11 columns of the 96-well plate. Drugs are the same as above. • 5. Serial dilution: 100µL of liquid was taken from the first column to the second column, mixed well, then 100µL of liquid was taken from the second column to the third column, mixed well, and so on, sequentially diluting down to the last column (column 12). After mixing column 12 well, 100µL of liquid thereof was discarded. The drug concentration in each well was decreased by two-fold serially (the concentration in the first well is 40µg/mL). • 6. Blank CAMHB broth without added bacteria liquid was added to 3 blank wells in the 96-well plate, as negative control. • 7. The diluted bacterial liquid was added to 3 blank wells in the 96-well plate, as positive control. • 8. Incubated at 37°C for 16 hours. • 9. Results reading: the minimum inhibitory concentration is the minimum drug concentration at which no bacterial growth is visible to the naked eye and without turbidity.

Another experiment has as its system P.aeruginosa ATCC 27853. The description is as above. The settings on record: Pseudomonas aeruginosa, ATCC27853; Table 2; 37°C, 16 hours; read-out: G- bacteria MIC P.aeruginosa ATCC 27853.
Description: as §1

Another experiment relates to A. baumannii ATCC 17978. The experiment is described as above. Conditions: Acinetobacter baumannii, ATCC17978; Table 2; 37°C, 16 hours; read-out: G- bacteria MIC A. baumannii ATCC 17978.
Description: as §1

The subject of the next experiment is E. feacium ATCC 700221. The experiment is described as above. Conditions: Table 1; 37°C, 16 hours; read-out: G+ bacteria MIC E. feacium ATCC 700221.
Description: as §1

A further experiment concerns E. coli ATCC 25922. The description is as above. The settings on record: Escherichia coli, ATCC25922; Table 2; 37°C, 16 hours; read-out: G- bacteria MIC E. coli ATCC 25922.
Description: as §1

Molecules are shown by their SMILES. Values after ≈ are worked out from the molar mass of the structure shown.

Take `CN[C@H](CC(C)C)C(=O)N[C@H]1C(=O)N[C@@H](CC(N)=O)C(=O)N[C@H]2C(=O)N[C@H]3C(=O)N[C@H](C(=O)N[C@H](C(=O)O)c4cc(O)cc(O)c4-c4cc3ccc4O)[C@H](O)c3ccc(c(Cl)c3)Oc3cc2cc(c3O[C@@H]2O[C@H](CO)[C@@H](O)[C@H](O)[C@H]2O[C@H]2C[C@](C)(N)[C@H](O)[C@H](C)O2)Oc2ccc(cc2Cl)[C@H]1O` [vancomycin]: the minimal inhibitory concentration (MIC) in experiment [1] came out at 4 µg/mL (≈ 2.76 µM).
Consider `O=C(O)c1cn(C2CC2)c2cc(-c3ccc(S(=O)(=O)NCCO)cc3)c(F)cc2c1=O` [Example 13, 1-cyclopropyl-6-fluoro-7-(4-(N-(2-hydroxyethyl)sulfamoyl)phenyl)-4-oxo-1,4-dihydroquinolin-3-carboxylic acid], for which the minimal inhibitory concentration (MIC) was at most 0.1 µg/mL in the experiment on S. aureus ATCC 43300; 0.1 to 1 µg/mL (≈ 0.224 to 2.24 µM) in the experiment with P.aeruginosa ATCC 27853; 0.1 to 1 µg/mL (≈ 0.224 to 2.24 µM) with A. baumannii ATCC 17978; 1 to 8 µg/mL (≈ 2.24 to 17.9 µM) in the experiment on E. feacium ATCC 700221; at most 0.1 µg/mL with E. coli ATCC 25922.
Turning to `COc1c(N2C[C@@H]3CCCN[C@@H]3C2)c(F)cc2c(=O)c(C(=O)O)cn(C3CC3)c12` [Moxifloxacin, reference compound], the MIC in the experiment on S. aureus ATCC 43300 was at most 0.1 µg/mL; with P.aeruginosa ATCC 27853, 1 to 8 µg/mL (≈ 2.49 to 19.9 µM); in the experiment with A. baumannii ATCC 17978, at most 0.1 µg/mL; in the experiment on E. feacium ATCC 700221, over 8 µg/mL; in the experiment with E. coli ATCC 25922, at most 0.1 µg/mL.
